Read-outs that look alike come from different tables or passages of the source.
Experiments:
[1] = biological target: AEA-DA lipid probe targets in Neuro2a cells (Mus musculus, UniProt P08113)
[2] = biological target: T1, AEA-DA lipid probe targets in Neuro2a cells (Mus musculus, UniProt Q6QD59)
T1 sequence (Q6QD59 1-228): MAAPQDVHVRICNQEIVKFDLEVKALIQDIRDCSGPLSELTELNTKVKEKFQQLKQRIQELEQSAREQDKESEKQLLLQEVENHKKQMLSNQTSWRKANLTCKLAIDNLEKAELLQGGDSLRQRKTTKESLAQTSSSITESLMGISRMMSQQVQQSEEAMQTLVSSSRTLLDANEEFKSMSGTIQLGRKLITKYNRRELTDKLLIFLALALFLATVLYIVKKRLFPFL

[3] = biological target: AEA-DA lipid probe targets in Neuro2a cells (Mus musculus, UniProt O88696)
[4] = biological target: T2, AEA-DA lipid probe targets in Neuro2a cells (Mus musculus, UniProt P61759)
T2 sequence (P61759 1-196): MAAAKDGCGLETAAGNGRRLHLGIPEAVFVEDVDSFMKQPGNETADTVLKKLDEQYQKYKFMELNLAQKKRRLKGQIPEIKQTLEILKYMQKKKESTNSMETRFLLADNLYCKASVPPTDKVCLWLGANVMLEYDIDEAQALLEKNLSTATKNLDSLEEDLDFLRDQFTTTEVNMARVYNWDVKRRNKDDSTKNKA

[5] = biological target: AEA-DA lipid probe targets in Neuro2a cells (Mus musculus, UniProt Q9CYN2)
[6] = biological target: AEA-DA lipid probe targets in Neuro2a cells (Mus musculus, UniProt Q8BMS1)
[7] = biological target: T3, AEA-DA lipid probe targets in Neuro2a cells (Mus musculus, UniProt Q8C7K6)
T3 sequence (Q8C7K6 23-495): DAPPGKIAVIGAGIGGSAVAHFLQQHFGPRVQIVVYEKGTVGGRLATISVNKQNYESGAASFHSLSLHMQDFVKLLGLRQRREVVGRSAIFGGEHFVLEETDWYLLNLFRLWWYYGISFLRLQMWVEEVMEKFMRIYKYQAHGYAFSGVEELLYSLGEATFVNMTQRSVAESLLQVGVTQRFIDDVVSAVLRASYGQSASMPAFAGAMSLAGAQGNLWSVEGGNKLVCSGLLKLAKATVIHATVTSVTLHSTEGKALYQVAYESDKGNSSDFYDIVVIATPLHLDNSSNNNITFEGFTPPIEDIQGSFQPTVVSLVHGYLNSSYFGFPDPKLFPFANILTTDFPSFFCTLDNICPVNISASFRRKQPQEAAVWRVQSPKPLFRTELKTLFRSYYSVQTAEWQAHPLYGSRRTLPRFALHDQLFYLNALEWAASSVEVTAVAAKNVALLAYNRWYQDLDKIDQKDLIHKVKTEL

[8] = biological target: T4, AEA-DA lipid probe targets in Neuro2a cells (Mus musculus, UniProt Q99JH8)
T4 sequence (Q99JH8 1-212): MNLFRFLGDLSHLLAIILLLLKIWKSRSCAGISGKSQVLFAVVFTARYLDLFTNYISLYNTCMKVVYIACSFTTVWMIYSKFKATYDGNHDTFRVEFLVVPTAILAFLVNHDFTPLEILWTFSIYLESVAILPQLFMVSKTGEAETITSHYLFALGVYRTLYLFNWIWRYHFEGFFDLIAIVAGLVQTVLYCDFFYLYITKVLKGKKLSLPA

[9] = biological target: T5, AEA-DA lipid probe targets in Neuro2a cells (Mus musculus, UniProt Q924D0); settings: protein Rtn4ip1, Neuro2a cells
T5 sequence (Q924D0 41-396): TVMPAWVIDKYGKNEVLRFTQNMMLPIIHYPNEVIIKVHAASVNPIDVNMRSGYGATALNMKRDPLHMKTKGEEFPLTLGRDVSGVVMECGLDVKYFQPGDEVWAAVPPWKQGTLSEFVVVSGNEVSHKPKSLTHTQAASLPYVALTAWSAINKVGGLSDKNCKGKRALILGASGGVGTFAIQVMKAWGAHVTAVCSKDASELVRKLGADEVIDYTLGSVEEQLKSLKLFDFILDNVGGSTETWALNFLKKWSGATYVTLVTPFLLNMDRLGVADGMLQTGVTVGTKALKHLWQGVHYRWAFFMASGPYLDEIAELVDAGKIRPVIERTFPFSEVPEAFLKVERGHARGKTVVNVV

[10] = biological target: T6, AEA-DA lipid probe targets in Neuro2a cells (Mus musculus, UniProt O70252); settings: for SILAC ratio, HMOX2 (P30519): Neuro2a cells, AEA-DA probe
T6 sequence (O70252 1-315): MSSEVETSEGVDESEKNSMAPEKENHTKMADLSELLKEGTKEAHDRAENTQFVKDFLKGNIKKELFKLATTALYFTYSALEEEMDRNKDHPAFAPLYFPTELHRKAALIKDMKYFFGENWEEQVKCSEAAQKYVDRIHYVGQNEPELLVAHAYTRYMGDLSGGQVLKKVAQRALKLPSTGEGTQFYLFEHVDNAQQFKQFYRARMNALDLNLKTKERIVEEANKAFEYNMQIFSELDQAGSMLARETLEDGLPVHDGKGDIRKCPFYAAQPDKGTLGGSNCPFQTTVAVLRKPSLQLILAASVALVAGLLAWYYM

[11] = biological target: AEA-DA lipid probe targets in Neuro2a cells (Mus musculus, UniProt Q8VE88)
[12] = biological target: T7, AEA-DA lipid probe targets in Neuro2a cells (Mus musculus, UniProt P00375)
T7 sequence (P00375 1-187): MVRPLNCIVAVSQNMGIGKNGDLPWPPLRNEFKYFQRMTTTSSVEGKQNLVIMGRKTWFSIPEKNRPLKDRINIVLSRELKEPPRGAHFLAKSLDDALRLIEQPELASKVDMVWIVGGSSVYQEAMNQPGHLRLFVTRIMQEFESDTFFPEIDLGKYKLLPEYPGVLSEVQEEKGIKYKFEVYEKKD

Sequence of AEA-DA lipid probe targets in Neuro2a cells (Mus musculus, UniProt P08113) (P08113 22-802): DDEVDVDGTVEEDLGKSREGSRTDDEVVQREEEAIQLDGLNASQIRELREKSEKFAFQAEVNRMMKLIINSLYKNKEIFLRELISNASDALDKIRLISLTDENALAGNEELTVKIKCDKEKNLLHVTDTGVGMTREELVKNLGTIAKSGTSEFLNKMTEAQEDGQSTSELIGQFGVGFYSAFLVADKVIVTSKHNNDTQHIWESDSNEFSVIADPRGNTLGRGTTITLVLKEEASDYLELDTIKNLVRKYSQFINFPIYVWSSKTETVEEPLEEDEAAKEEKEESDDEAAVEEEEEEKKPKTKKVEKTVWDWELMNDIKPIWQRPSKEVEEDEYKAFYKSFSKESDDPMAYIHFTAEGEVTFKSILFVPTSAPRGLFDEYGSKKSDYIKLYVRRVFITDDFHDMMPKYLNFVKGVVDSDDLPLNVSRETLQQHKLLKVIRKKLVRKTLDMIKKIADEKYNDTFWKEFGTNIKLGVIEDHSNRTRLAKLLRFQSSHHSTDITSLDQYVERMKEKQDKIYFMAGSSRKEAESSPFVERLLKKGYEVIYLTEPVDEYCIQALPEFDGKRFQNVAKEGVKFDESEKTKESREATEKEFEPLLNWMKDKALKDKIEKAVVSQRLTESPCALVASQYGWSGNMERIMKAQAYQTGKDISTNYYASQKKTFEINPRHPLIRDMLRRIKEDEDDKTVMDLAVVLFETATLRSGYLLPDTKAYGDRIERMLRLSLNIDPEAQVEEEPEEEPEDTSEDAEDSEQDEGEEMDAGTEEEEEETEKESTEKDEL
Sequence of AEA-DA lipid probe targets in Neuro2a cells (Mus musculus, UniProt Q8BMS1) (Q8BMS1 37-763): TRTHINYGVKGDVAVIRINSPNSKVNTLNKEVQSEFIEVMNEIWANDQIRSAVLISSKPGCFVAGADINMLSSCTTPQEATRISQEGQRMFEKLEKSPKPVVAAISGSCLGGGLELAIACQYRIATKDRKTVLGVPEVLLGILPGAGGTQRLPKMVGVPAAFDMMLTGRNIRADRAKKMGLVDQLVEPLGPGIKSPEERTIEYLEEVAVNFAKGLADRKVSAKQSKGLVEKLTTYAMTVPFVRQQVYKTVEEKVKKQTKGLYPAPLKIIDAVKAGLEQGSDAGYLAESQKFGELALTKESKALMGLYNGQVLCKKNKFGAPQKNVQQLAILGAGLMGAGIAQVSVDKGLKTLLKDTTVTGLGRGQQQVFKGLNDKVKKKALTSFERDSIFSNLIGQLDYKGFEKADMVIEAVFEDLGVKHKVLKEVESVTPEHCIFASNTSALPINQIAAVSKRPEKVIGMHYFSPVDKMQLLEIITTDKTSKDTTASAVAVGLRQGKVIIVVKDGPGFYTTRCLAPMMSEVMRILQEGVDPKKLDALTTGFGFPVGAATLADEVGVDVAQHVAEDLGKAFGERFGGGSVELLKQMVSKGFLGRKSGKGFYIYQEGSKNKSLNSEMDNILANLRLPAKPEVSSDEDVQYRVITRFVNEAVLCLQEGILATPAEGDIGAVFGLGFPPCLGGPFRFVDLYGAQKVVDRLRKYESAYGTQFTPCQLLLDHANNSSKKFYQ
Sequence of AEA-DA lipid probe targets in Neuro2a cells (Mus musculus, UniProt Q9CYN2) (Q9CYN2 whole entry): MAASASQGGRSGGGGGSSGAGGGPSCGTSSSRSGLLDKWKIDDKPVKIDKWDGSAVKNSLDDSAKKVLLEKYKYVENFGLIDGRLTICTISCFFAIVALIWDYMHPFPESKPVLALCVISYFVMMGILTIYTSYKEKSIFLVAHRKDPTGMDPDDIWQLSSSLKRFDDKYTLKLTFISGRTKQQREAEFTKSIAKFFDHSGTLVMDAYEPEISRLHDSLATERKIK
Sequence of AEA-DA lipid probe targets in Neuro2a cells (Mus musculus, UniProt O88696) (O88696 53-272): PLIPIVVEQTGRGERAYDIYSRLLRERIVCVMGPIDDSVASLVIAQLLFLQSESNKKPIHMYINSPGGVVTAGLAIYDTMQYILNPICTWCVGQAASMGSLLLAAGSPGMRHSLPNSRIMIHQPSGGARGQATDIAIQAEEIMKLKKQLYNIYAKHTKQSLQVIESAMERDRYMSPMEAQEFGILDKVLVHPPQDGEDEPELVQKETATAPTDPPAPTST
Sequence of AEA-DA lipid probe targets in Neuro2a cells (Mus musculus, UniProt Q8VE88) (Q8VE88 whole entry): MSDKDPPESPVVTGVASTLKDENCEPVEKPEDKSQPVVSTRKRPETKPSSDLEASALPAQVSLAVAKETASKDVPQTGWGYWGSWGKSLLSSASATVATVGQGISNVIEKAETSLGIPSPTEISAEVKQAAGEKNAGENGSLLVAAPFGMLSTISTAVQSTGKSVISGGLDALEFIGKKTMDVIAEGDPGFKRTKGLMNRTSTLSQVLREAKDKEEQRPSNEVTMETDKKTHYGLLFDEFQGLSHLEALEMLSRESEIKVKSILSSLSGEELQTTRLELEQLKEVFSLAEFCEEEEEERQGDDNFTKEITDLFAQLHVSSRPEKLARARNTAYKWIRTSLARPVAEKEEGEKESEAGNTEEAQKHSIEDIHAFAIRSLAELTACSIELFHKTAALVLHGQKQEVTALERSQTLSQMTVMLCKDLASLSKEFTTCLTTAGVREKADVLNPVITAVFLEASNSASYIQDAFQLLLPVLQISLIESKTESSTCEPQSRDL

CCCCC/C=C\C/C=C\C/C=C\C/C=C\CCCC(=O)NCCO [AEA, anandamide, reference compound]
SILAC ratio Hsp90b1 ([1]; competitor 200 μM): 1.1 | SILAC ratio, Bnip1 ([2]; competitor 200 μM): 2.1 | SILAC ratio Clpp ([3]; competitor 200 μM): 1.4 | SILAC ratio, Vbp1 ([4]; competitor 200 μM): 1.1 | SILAC ratio Spcs2 ([5]; competitor 200 μM): 1.7 | SILAC ratio, Hadha ([6]; competitor 200 μM): 2.3 | SILAC ratio Pcyox11 ([7]; competitor 200 μM): 1.5 | SILAC ratio Kdelr1 ([8]; competitor 200 μM): 1.2 | SILAC ratio (AEA-DA competition) ([9]; competitor 200 μM): 1.0 | SILAC ratio, HMOX2 (P30519) ([10]; competitor 200 μM): 3.2 | SILAC ratio, Hmox2 ([10]; competitor 200 μM): 3.2 | SILAC ratio, Fam114a2 ([11]; competitor 200 μM): 1.4 | SILAC ratio Dhfr ([12]; competitor 200 μM): 1.2

O=C(/C=C/c1cccnc1)NCCCCC1CCN(C(=O)c2ccccc2)CC1 [FK-866, reference compound]
SILAC ratio Hsp90b1 ([1]; competitor 25 μM): 1.2 | SILAC ratio Clpp ([3]; competitor 25 μM): 1.0 | SILAC ratio, Vbp1 ([4]; competitor 25 μM): 1.1 | SILAC ratio Spcs2 ([5]; competitor 25 μM): 1.3 | SILAC ratio, Hadha ([6]; competitor 25 μM): 6.2 | SILAC ratio Pcyox11 ([7]; competitor 25 μM): 1.3 | SILAC ratio Kdelr1 ([8]; competitor 25 μM): 1.1 | SILAC ratio, HMOX2 (P30519) ([10]; competitor 25 μM): 1.0 | SILAC ratio, Hmox2 ([10]; competitor 25 μM): 1.0 | SILAC ratio, Fam114a2 ([11]; competitor 25 μM): 1.0 | SILAC ratio Dhfr ([12]; competitor 25 μM): 1.2

CN1CCN(C(=O)c2c(-c3ccccc3)c3cc([N+](=O)[O-])ccc3n2C)CC1 [KML110, (1-Methyl-5-nitro-3-phenyl-1H-indol-2-yl)(4-methylpiperazin-1-yl)methanone]
SILAC ratio Hsp90b1 ([1]; competitor 25 μM): 1.4 | SILAC ratio, Bnip1 ([2]; competitor 25 μM): 1.3 | SILAC ratio Clpp ([3]; competitor 25 μM): 2.4 | SILAC ratio, Vbp1 ([4]; competitor 25 μM): 1.6 | SILAC ratio Spcs2 ([5]; competitor 25 μM): 1.6 | SILAC ratio, Hadha ([6]; competitor 25 μM): 2.0 | SILAC ratio Pcyox11 ([7]; competitor 25 μM): 2.0 | SILAC ratio Kdelr1 ([8]; competitor 25 μM): 1.1 | SILAC ratio, Hmox2 ([10]; competitor 25 μM): 1.5 | SILAC ratio, Fam114a2 ([11]; competitor 25 μM): 2.2 | SILAC ratio Dhfr ([12]; competitor 25 μM): 1.4

CN1CCN(C(=O)c2[nH]c3ccc([N+](=O)[O-])cc3c2-c2ccccc2)CC1 [MJN228, (4-Methylpiperazin-1-yl)(5-nitro-3-phenyl-1H-indol-2-yl)methanone]
SILAC ratio Hsp90b1 ([1]; competitor 10 μM): 1.3 | SILAC ratio Hsp90b1 ([1]; competitor 25 μM): 1.3 | SILAC ratio Hsp90b1 ([1]; competitor 50 μM): 1.5 | SILAC ratio Hsp90b1 ([1]; competitor 100 μM): 1.4 | SILAC ratio, Bnip1 ([2]; competitor 10 μM): 1.2 | SILAC ratio, Bnip1 ([2]; competitor 25 μM): 1.1 | SILAC ratio Clpp ([3]; competitor 10 μM): 1.4 | SILAC ratio Clpp ([3]; competitor 25 μM): 2.1 | SILAC ratio Clpp ([3]; competitor 50 μM): 3.6 | SILAC ratio Clpp ([3]; competitor 100 μM): 9.0 | SILAC ratio, Vbp1 ([4]; competitor 25 μM): 1.5 | SILAC ratio, Vbp1 ([4]; competitor 50 μM): 0.9 | SILAC ratio, Vbp1 ([4]; competitor 100 μM): 2.0 | SILAC ratio Spcs2 ([5]; competitor 10 μM): 1.2 | SILAC ratio Spcs2 ([5]; competitor 25 μM): 1.4 | SILAC ratio Spcs2 ([5]; competitor 50 μM): 1.5 | SILAC ratio Spcs2 ([5]; competitor 100 μM): 1.8 | SILAC ratio, Hadha ([6]; competitor 10 μM): 1.4 | SILAC ratio, Hadha ([6]; competitor 25 μM): 1.7 | SILAC ratio, Hadha ([6]; competitor 50 μM): 2.0 | SILAC ratio, Hadha ([6]; competitor 100 μM): 2.9 | SILAC ratio Pcyox11 ([7]; competitor 10 μM): 1.2 | SILAC ratio Pcyox11 ([7]; competitor 25 μM): 1.8 | SILAC ratio Pcyox11 ([7]; competitor 50 μM): 1.7 | SILAC ratio Pcyox11 ([7]; competitor 100 μM): 2.5 | SILAC ratio Kdelr1 ([8]; competitor 10 μM): 1.1 | SILAC ratio Kdelr1 ([8]; competitor 25 μM): 1.2 | SILAC ratio Kdelr1 ([8]; competitor 50 μM): 1.5 | SILAC ratio Kdelr1 ([8]; competitor 100 μM): 1.5 | SILAC ratio (AEA-DA competition) ([9]; competitor 10 μM): 1.0 | SILAC ratio (AEA-DA competition) ([9]; competitor 25 μM): 1.4 | SILAC ratio, HMOX2 (P30519) ([10]; competitor 25 μM): 1.4 | SILAC ratio, Hmox2 ([10]; competitor 10 μM): 1.1 | SILAC ratio, Hmox2 ([10]; competitor 25 μM): 1.4 | SILAC ratio, Hmox2 ([10]; competitor 50 μM): 1.3 | SILAC ratio, Hmox2 ([10]; competitor 100 μM): 1.7 | SILAC ratio, Fam114a2 ([11]; competitor 10 μM): 1.6 | SILAC ratio, Fam114a2 ([11]; competitor 25 μM): 3.5 | SILAC ratio, Fam114a2 ([11]; competitor 50 μM): 4.1 | SILAC ratio, Fam114a2 ([11]; competitor 100 μM): 7.6 | SILAC ratio Dhfr ([12]; competitor 10 μM): 2.0 | SILAC ratio Dhfr ([12]; competitor 25 μM): 1.6 | SILAC ratio Dhfr ([12]; competitor 50 μM): 0.4 | SILAC ratio Dhfr ([12]; competitor 100 μM): 1.5

C=CCN(C)CCCCCCOc1ccc(C(=O)c2ccc(Br)cc2)c(F)c1 [Ro 48-8071, reference compound]
SILAC ratio Hsp90b1 ([1]; competitor 25 μM): 0.9 | SILAC ratio, Bnip1 ([2]; competitor 25 μM): 1.0 | SILAC ratio Clpp ([3]; competitor 25 μM): 0.9 | SILAC ratio, Vbp1 ([4]; competitor 25 μM): 0.9 | SILAC ratio Spcs2 ([5]; competitor 25 μM): 1.2 | SILAC ratio, Hadha ([6]; competitor 25 μM): 1.0 | SILAC ratio Pcyox11 ([7]; competitor 25 μM): 1.0 | SILAC ratio Kdelr1 ([8]; competitor 25 μM): 1.0 | SILAC ratio (AEA-DA competition) ([9]; competitor 25 μM): 0.7 | SILAC ratio, HMOX2 (P30519) ([10]; competitor 25 μM): 1.3 | SILAC ratio, Hmox2 ([10]; competitor 25 μM): 1.3 | SILAC ratio, Fam114a2 ([11]; competitor 25 μM): 1.6 | SILAC ratio Dhfr ([12]; competitor 25 μM): 0.8
